{
  "source": "patent US20160242416A1",
  "about": "“FUNGICIDAL ISOXAZOLINE CARBINOLS” (E I DU PONT DE NEMOURS AND COMPANY, priority 2015, published 2016)",
  "key": {"Phytophthora infestans": {"system": "Phytophthora infestans", "format": "in vivo", "settings": "100 = 100% disease control; for Test C rating (% disease control): 50 ppm (asterisk), tomato late blight, 0 = no control; for Test C disease control rating: 50 ppm test solution (asterisked compounds), 0 = no control relative to controls"}, "Botrytis cinerea": {"system": "Botrytis cinerea", "assay": "Test B: gray mold, preventive spray on tomato seedlings", "settings": "100 = 100% disease control; for Test B rating (% disease control): 50 ppm (asterisk), gray mold on tomato, 0 = no control; for Test B disease control rating: 50 ppm test solution (asterisked compounds), 0 = no control relative to controls"}, "[1]": {"system": "Puccinia recondita f sp. tritici", "assay": "Test F: wheat leaf rust, preventive spray on wheat seedlings", "settings": "100 = 100% disease control; for Test F rating (% disease control): 50 ppm (asterisk), wheat leaf rust, 0 = no control; for Test F disease control rating: 50 ppm test solution (asterisked compounds), 0 = no control relative to controls"}, "Zymoseptoria tritici": {"system": "Zymoseptoria tritici", "assay": "Test E: wheat leaf blotch, preventive spray on wheat seedlings", "settings": "100 = 100% disease control; for Test E rating (% disease control): 50 ppm (asterisk), wheat leaf blotch, 0 = no control; for Test E disease control rating: 50 ppm test solution (asterisked compounds), 0 = no control relative to controls"}, "Stagonospora nodorum": {"system": "Stagonospora nodorum", "assay": "Test D: wheat glume blotch, preventive spray on wheat seedlings", "settings": "100 = 100% disease control; for Test D rating (% disease control): 50 ppm (asterisk), wheat glume blotch, 0 = no control; for Test D disease control rating: 50 ppm test solution (asterisked compounds), 0 = no control relative to controls", "from_the_text": "General protocol for preparing test solutions for Tests A-G: the test compounds were first dissolved in acetone in an amount equal to 3% of the final volume and then suspended at the desired concentration (in ppm) in acetone and purified water (50/50 mix by volume) containing 250 ppm of the surfactant PEG400 (polyhydric alcohol esters). The resulting test suspensions were then used in Tests A-G. Compounds were sprayed at a concentration of 50 ppm (*) or 10 ppm to the point of run-off on the test plants, the equivalent of a rate of 200 g/ha or 40 g/ha, respectively.\nThe test solution was sprayed to the point of run-off on wheat seedlings. The following day the seedlings were inoculated with a spore suspension of Stagonospora nodorum (also known as Septoria nodorum; the causal agent of wheat glume blotch) and incubated in a saturated atmosphere at 20° C. for 48 h, and then moved to a growth chamber at 20° C. for 6 days, after which time visual disease ratings were made.\nCompounds with an asterisks (*) were applied at a concentration of 50 ppm, otherwise test solutions were applied at 10 ppm."}, "[2]": {"system": "Erysiphe graminis f sp. tritici", "assay": "Test G: wheat powdery mildew, preventive spray on wheat seedlings", "settings": "100 = 100% disease control; for Test G rating (% disease control): 50 ppm (asterisk), wheat powdery mildew, 0 = no control; for Test G disease control rating: 50 ppm test solution (asterisked compounds), 0 = no control relative to controls"}},
  "data": [
    {"smiles": "OC(Cn1cncn1)(C1=NOC(Cc2ccccc2)C1)c1ccc(Cl)cc1", "note": "(single isomer, unassigned) [Compound 136]", "values": [
      {"measurement": "Test C rating (% disease control)", "setting": "Phytophthora infestans", "value": 0, "unit": "%"},
      {"measurement": "Test B rating (% disease control)", "setting": "Botrytis cinerea", "value": 92, "unit": "%"},
      {"measurement": "Test F rating (% disease control)", "setting": "[1]", "value": 100, "unit": "%"},
      {"measurement": "Test E rating (% disease control)", "setting": "Zymoseptoria tritici", "value": 83, "unit": "%"},
      {"measurement": "Test D rating (% disease control)", "setting": "Stagonospora nodorum", "value": 100, "unit": "%"},
      {"measurement": "Test G rating (% disease control)", "setting": "[2]", "value": 100, "unit": "%"}
    ]},
    {"smiles": "OC(Cn1cncn1)(C1=NOC(c2ccc(F)cc2)C1)c1ccccc1", "note": "(mixture of isomers) [Compound 116]", "values": [
      {"measurement": "Test C rating (% disease control)", "setting": "Phytophthora infestans", "value": 0, "unit": "%"},
      {"measurement": "Test B rating (% disease control)", "setting": "Botrytis cinerea", "value": 0, "unit": "%"},
      {"measurement": "Test F rating (% disease control)", "setting": "[1]", "value": 80, "unit": "%"},
      {"measurement": "Test E rating (% disease control)", "setting": "Zymoseptoria tritici", "value": 0, "unit": "%"},
      {"measurement": "Test D rating (% disease control)", "setting": "Stagonospora nodorum", "value": 100, "unit": "%"},
      {"measurement": "Test G rating (% disease control)", "setting": "[2]", "value": 99, "unit": "%"}
    ]},
    {"smiles": "CC1(c2ccc(Cl)cc2)CC(C(O)(Cn2cncn2)c2ccc(Cl)cc2)=NO1", "note": "(single isomer, unassigned) [Compound 212]", "values": [
      {"measurement": "Test C rating (% disease control)", "setting": "Phytophthora infestans", "value": 0, "unit": "%"},
      {"measurement": "Test B rating (% disease control)", "setting": "Botrytis cinerea", "value": 28, "unit": "%"},
      {"measurement": "Test F rating (% disease control)", "setting": "[1]", "value": 100, "unit": "%"},
      {"measurement": "Test E rating (% disease control)", "setting": "Zymoseptoria tritici", "value": 0, "unit": "%"},
      {"measurement": "Test D rating (% disease control)", "setting": "Stagonospora nodorum", "value": 96, "unit": "%"},
      {"measurement": "Test G rating (% disease control)", "setting": "[2]", "value": 100, "unit": "%"}
    ]},
    {"smiles": "CC1(c2ccc(Cl)cc2)CC(C(O)(Cn2cncn2)c2ccccc2)=NO1", "note": "(single isomer, unassigned) [Compound 210]", "values": [
      {"measurement": "Test C rating (% disease control)", "setting": "Phytophthora infestans", "value": 0, "unit": "%"},
      {"measurement": "Test B rating (% disease control)", "setting": "Botrytis cinerea", "value": 0, "unit": "%"},
      {"measurement": "Test F rating (% disease control)", "setting": "[1]", "value": 100, "unit": "%"},
      {"measurement": "Test E rating (% disease control)", "setting": "Zymoseptoria tritici", "value": 41, "unit": "%"},
      {"measurement": "Test D rating (% disease control)", "setting": "Stagonospora nodorum", "value": 100, "unit": "%"},
      {"measurement": "Test G rating (% disease control)", "setting": "[2]", "value": 100, "unit": "%"}
    ]},
    {"smiles": "OC(Cn1cncn1)(C1=NOC(c2ccccc2)(C(F)(F)F)C1)c1ccc(Cl)cc1", "note": "(single isomer, unassigned) [Compound 215]", "values": [
      {"measurement": "Test C disease control rating", "setting": "Phytophthora infestans", "value": 0, "unit": "%"},
      {"measurement": "Test B disease control rating", "setting": "Botrytis cinerea", "value": 0, "unit": "%"},
      {"measurement": "Test F disease control rating", "setting": "[1]", "value": 100, "unit": "%"},
      {"measurement": "Test E disease control rating", "setting": "Zymoseptoria tritici", "value": 0, "unit": "%"},
      {"measurement": "Test D disease control rating", "setting": "Stagonospora nodorum", "value": 0, "unit": "%"},
      {"measurement": "Test G disease control rating", "setting": "[2]", "value": 100, "unit": "%"}
    ]},
    {"smiles": "OC(Cn1cncn1)(C1=NOC(c2ccccc2F)C1)c1ccccc1", "note": "(mixture of isomers) [Compound 118]", "values": [
      {"measurement": "Test C rating (% disease control)", "setting": "Phytophthora infestans", "value": 0, "unit": "%"},
      {"measurement": "Test B rating (% disease control)", "setting": "Botrytis cinerea", "value": 68, "unit": "%"},
      {"measurement": "Test F rating (% disease control)", "setting": "[1]", "value": 89, "unit": "%"},
      {"measurement": "Test E rating (% disease control)", "setting": "Zymoseptoria tritici", "value": 0, "unit": "%"},
      {"measurement": "Test D rating (% disease control)", "setting": "Stagonospora nodorum", "value": 100, "unit": "%"},
      {"measurement": "Test G rating (% disease control)", "setting": "[2]", "value": 99, "unit": "%"}
    ]},
    {"smiles": "OC(Cn1cncn1)(C1=NOC(c2ccc(F)cc2)C1)c1ccc(F)cc1", "note": "(single isomer, unassigned) [Compound 122]", "values": [
      {"measurement": "Test C rating (% disease control)", "setting": "Phytophthora infestans", "value": 0, "unit": "%"},
      {"measurement": "Test B rating (% disease control)", "setting": "Botrytis cinerea", "value": 0, "unit": "%"},
      {"measurement": "Test F rating (% disease control)", "setting": "[1]", "value": 100, "unit": "%"},
      {"measurement": "Test E rating (% disease control)", "setting": "Zymoseptoria tritici", "value": 77, "unit": "%"},
      {"measurement": "Test D rating (% disease control)", "setting": "Stagonospora nodorum", "value": 100, "unit": "%"},
      {"measurement": "Test G rating (% disease control)", "setting": "[2]", "value": 100, "unit": "%"}
    ]},
    {"smiles": "OC(Cn1cncn1)(C1=NOC(c2ccccc2)(C(F)(F)F)C1)c1ccc(Cl)cc1", "note": "(single isomer, unassigned) [Compound 214]", "values": [
      {"measurement": "Test C disease control rating", "setting": "Phytophthora infestans", "value": 0, "unit": "%"},
      {"measurement": "Test B disease control rating", "setting": "Botrytis cinerea", "value": 0, "unit": "%"},
      {"measurement": "Test F disease control rating", "setting": "[1]", "value": 25, "unit": "%"},
      {"measurement": "Test E disease control rating", "setting": "Zymoseptoria tritici", "value": 1, "unit": "%"},
      {"measurement": "Test D disease control rating", "setting": "Stagonospora nodorum", "value": 0, "unit": "%"},
      {"measurement": "Test G disease control rating", "setting": "[2]", "value": 99, "unit": "%"}
    ]},
    {"smiles": "OC(Cn1cncn1)(C1=NOC(c2ccc(Cl)cc2)C1)c1ccc(F)cc1F", "note": "(single isomer, unassigned) [Compound 130]", "values": [
      {"measurement": "Test C rating (% disease control)", "setting": "Phytophthora infestans", "value": 0, "unit": "%"},
      {"measurement": "Test B rating (% disease control)", "setting": "Botrytis cinerea", "value": 14, "unit": "%"},
      {"measurement": "Test F rating (% disease control)", "setting": "[1]", "value": 100, "unit": "%"},
      {"measurement": "Test E rating (% disease control)", "setting": "Zymoseptoria tritici", "value": 11, "unit": "%"},
      {"measurement": "Test D rating (% disease control)", "setting": "Stagonospora nodorum", "value": 100, "unit": "%"},
      {"measurement": "Test G rating (% disease control)", "setting": "[2]", "value": 100, "unit": "%"}
    ]},
    {"smiles": "CC(C)(C)C1CC(C(O)(Cn2cncn2)c2ccccc2)=NO1", "note": "(single isomer, unassigned) [Compound 124]", "values": [
      {"measurement": "Test C rating (% disease control)", "setting": "Phytophthora infestans", "value": 0, "unit": "%"},
      {"measurement": "Test B rating (% disease control)", "setting": "Botrytis cinerea", "value": 0, "unit": "%"},
      {"measurement": "Test F rating (% disease control)", "setting": "[1]", "value": 28, "unit": "%"},
      {"measurement": "Test E rating (% disease control)", "setting": "Zymoseptoria tritici", "value": 6, "unit": "%"},
      {"measurement": "Test D rating (% disease control)", "setting": "Stagonospora nodorum", "value": 0, "unit": "%"},
      {"measurement": "Test G rating (% disease control)", "setting": "[2]", "value": 96, "unit": "%"}
    ]},
    {"smiles": "OC(Cn1cncn1)(C1=NOC(c2ccc(Cl)cc2)C1)c1ccc(Cl)cc1", "note": "(single isomer, unassigned) [Compound 123]", "values": [
      {"measurement": "Test C rating (% disease control)", "setting": "Phytophthora infestans", "value": 0, "unit": "%"},
      {"measurement": "Test B rating (% disease control)", "setting": "Botrytis cinerea", "value": 56, "unit": "%"},
      {"measurement": "Test F rating (% disease control)", "setting": "[1]", "value": 100, "unit": "%"},
      {"measurement": "Test E rating (% disease control)", "setting": "Zymoseptoria tritici", "value": 100, "unit": "%"},
      {"measurement": "Test D rating (% disease control)", "setting": "Stagonospora nodorum", "value": 100, "unit": "%"},
      {"measurement": "Test G rating (% disease control)", "setting": "[2]", "value": 100, "unit": "%"}
    ]}
  ]
}
